Data taken from patent US9243036B2, “Anti-microbial activity of synthetic peptides” (THE UNITED STATES OF AMERICA, as represented by the …, priority 2012, dated 2016).
“Also recorded” adds a separate entry of the source. Residues, ends and D or L forms follow the SMILES beside them.

Legend:
[1] = test system: B. cereus; assay: Whole-cell ELISA binding of biotinylated peptide; conditions: EC5 50 μg/ml
Experimental: (§1) ELISA. Log-phase cultures of bacteria were centrifuged at 3,000×g. The cell pellet was resuspended and 10-fold serial dilutions were made in 1×PBS. Bacterial cell suspension at a concentration of 10^3 CFU was coated to the wells of 96-well micro plate (Becton Dickinson, Bedford, Mass.) and incubated overnight at RT. Subsequently, cells were fixed in ethanol (Aldrich Chemical Company, Milwaukee, Wis.) for 10 minutes (min) and the plates were air-dried. Wells were blocked with 5% bovine serum albumin (BSA) (Sigma, St. Louis, Mo.) for 60 min at room temperature (RT), rinsed with PBS and then EC5 peptide suspended in phosphate buffered saline (PBS) at a final concentration of 50 μg/ml were added to all the wells and incubated for 15 min. Following incubation, wells were washed 3 times with PBST buffer (PBS pH 7.4, 0.01% Tween 20). The wells were further incubated with 1:10,000 dilution of streptavidin-HRP conjugate (Upstate, Temecula, Calif.) for 15 min and washed with PBST buffer. Tetramethylbenzidine (TMB) membrane peroxidase substrate (Zymed Laboratories, Carlsbad, Calif.) system was used to detect the enzyme label in accordance with the manufacturer's instructions. The color development in the 96-well plate was recorded by using SYNERGY 4™ BioTek micro plate reader (BioTek Instruments, Winooski, Vt.) at 490 nm wavelength.

[2] = test system: P. aeruginosa cells; assay: Whole-cell ELISA binding of biotinylated peptide; conditions: EC5 50 μg/ml; p<0.05
Experimental: as §1

[3] = test system: S. aureus; assay: Whole-cell ELISA binding of biotinylated peptide; conditions: EC5 50 μg/ml
Experimental: as §1

[4] = test system: E. coli; assay: 2 h incubation of mid-logarithmic cultures with peptide, CFU on NA plates; assay type: cell-based; conditions: peptide 12.5, 25 and 50 μg/ml, inoculum 10^5 CFU/ml
Experimental: (§2) Mid-logarithmic phase cultures of bacteria with an inoculum of 10^5 CFU/ml were incubated with peptide concentrations ranging from 0 to 50 μg/ml in a shaker incubator for 2 h following which the samples were plated on NA agar plates and CFU determined.

[5] = test system: P. aeruginosa; assay: as above; assay type: cell-based; conditions: peptide 12.5, 25 and 50 μg/ml, inoculum 10^5 CFU/ml
Experimental: as §2

[6] = test system: B. cereus; assay: Anti-bacterial activity in spiked plasma; assay type: cell-based; conditions: even at 50 μg/ml
Experimental: (§3) The anti-bacterial activity of the peptide in the presence of homologous plasma and platelets were assessed. Platelet Concentrates (PCs) in bags were obtained and stored at room temperature as described earlier (Mohan, K. V. et al., (2010) Transfusion 50, 166-173). Plasma was isolated from the PC bag by collecting 25 ml of PCs and subjecting the sample to a low speed centrifugation step to separate PLT-rich plasma from plasma. For assays log phase cultures of bacteria grown in Luria-Bertani (LB) broth were centrifuged at 3000×g and suspended in 1×PBS pH7.4. Bacterial titers were estimated by measuring the optical density (OD) and microscopy. Approximately 10^5 CFU/ml of each bacterial strain was spiked into 0.1 ml of plasma or platelets and incubated with peptide at concentrations ranging from 50 to 0 μg/ml. Incubation was carried out at room temperature for 2 h on a shaker. At the end of 2-h exposure period, a fixed volume of the suspension was plated on NA plates, and incubating at 37° C. for 18 to 24 h. Bactericidal activity was measured by log-reduction by viable bacteria.

[7] = test system: E. coli; assay: Anti-bacterial activity in spiked plasma; assay type: cell-based; conditions: 2 h
Experimental: as §3

[8] = test system: K pneumoniae; assay: Anti-bacterial activity in spiked plasma; assay type: cell-based; conditions: 2 h
Experimental: as §3

[9] = test system: P. aeruginosa; assay: Anti-bacterial activity in spiked plasma; assay type: cell-based; conditions: 2 h
Experimental: as §3

[10] = test system: S. aureus; assay: Anti-bacterial activity in spiked plasma; assay type: cell-based; conditions: even at 50 μg/ml
Experimental: as §3

[11] = test system: S. epidermidis; assay: Anti-bacterial activity in spiked plasma; assay type: cell-based; conditions: even at 50 μg/ml
Experimental: as §3

[12] = test system: B. cereus; assay: Anti-bacterial activity in spiked platelets; assay type: cell-based; conditions: even at high concentrations
Experimental: as §3

[13] = test system: E. coli; assay: Anti-bacterial activity in spiked platelets; assay type: cell-based; conditions: 2 h
Experimental: as §3

[14] = test system: K pneumoniae; assay: Anti-bacterial activity in spiked platelets; assay type: cell-based; conditions: 2 h
Experimental: as §3

[15] = test system: P. aeruginosa; assay: Anti-bacterial activity in spiked platelets; assay type: cell-based; conditions: EC5 25 and 12.5 μg/ml; 2 h
Experimental: as §3

[16] = test system: S. aureus; assay: Anti-bacterial activity in spiked platelets; assay type: cell-based; conditions: even at high concentrations
Experimental: as §3

[17] = test system: S. epidermidis; assay: Anti-bacterial activity in spiked platelets; assay type: cell-based; conditions: even at high concentrations
Experimental: as §3

[18] = test system: E. coli; assay: Outer membrane permeabilization (NPN uptake) assay; assay type: cell-based
Experimental: (§4) Membrane-permeabilizing activity of the peptide was determined using the fluorescent dye N-phenyl-1-napthylamine (NPN) assay, as described earlier (Loh et al. (1984) Antimicrob. Agents Chemother. 26, 546-551), with intact cells of E. coli and P. aeruginosa. The increase in fluorescence due to partitioning of NPN uptake into outer membrane (OM) was measured by addition of increasing concentrations of peptide. Polymyxin B (PMB) was taken as a positive control due to its outer membrane permeabilizing properties. All experiments were performed three times. S. aureus was used as a negative control.
(§5) Outer membrane permeabilizing activity of EC5 against E. coli and P. aeruginosa was determined using the fluorescent dye N-phenyl-1-napthylamine (NPN) assay. The outer membrane of a bacterial cell is impermeable to NPN under normal conditions. However permeabilization of outer membrane by anti-microbial peptides allows the uptake of NPN thereby leading to increase in fluorescence in the cell. […] The outer membrane permeabilizing activity of EC5 was compared to polymyxin B, a well studied membrane permeabilising agent (Daugelavicius, R., et al., (2000) Antimicrob. Agents Chemother. 44, 2969-2978).

[19] = test system: P. aeruginosa; assay: Outer membrane permeabilization (NPN uptake) assay; assay type: cell-based
Experimental: as §4, §5

[20] = increasing peptide concentrations

## CC[C@H](C)[C@H](NC(=O)[C@H](CCCCN)NC(=O)[C@H](CCCNC(=N)N)NC(=O)[C@H](Cc1ccccc1)NC(=O)[C@H](CC(C)C)NC(=O)[C@H](CC(C)C)NC(=O)[C@@H](N)CCCNC(=N)N)C(=O)N[C@@H](CCCNC(=N)N)C(=O)N[C@@H](CCCNC(=N)N)C(=O)N[C@@H](CC(C)C)C(=O)N[C@@H](CCCCN)C(=O)N[C@@H](CCCNC(=N)N)C(=O)O [EC5, RLLFRKIRRLKR] (H-RLLFRKIRRLKR-OH; N-terminus and C-terminus assumed)
[1]
  binding to B. cereus: did not bind
[2]
  binding to P. aeruginosa cells: showed binding
[3]
  binding to S. aureus: did not bind
[4]
  reduction of E. coli: 5 log10 CFU/ml
[5]
  reduction of P. aeruginosa: 5 log10 CFU/ml
[6]
  reduction of B. cereus in plasma: failed to cause a significant reduction
[7]; EC5 12.5 μg/ml
  reduction of E. coli in plasma: 3.5 log10
[7]; EC5 25 μg/ml
  reduction of E. coli in plasma: 4.5 log10
[7]; EC5 50 μg/ml
  bactericidal activity in homologous plasma, in words: inhibited
  reduction of E. coli in plasma: around 5 log10 CFU/ml
[8]; EC5 25 μg/ml
  reduction of K pneumoniae in plasma: around 1.5 log10
[8]; EC5 50 μg/ml
  reduction of K pneumoniae in plasma: around 2.5 log10
[9]; EC5 12.5 μg/ml
  reduction of P. aeruginosa in plasma: ~3 log10 CFU/ml
[9]; EC5 25 μg/ml
  reduction of P. aeruginosa in plasma: around 4 log10 CFU/ml
[9]; EC5 50 μg/ml
  bactericidal activity in homologous plasma, in words: inhibited
  reduction of P. aeruginosa in plasma: around 5 log10 CFU/ml
[10]
  reduction of S. aureus in plasma: failed to cause a significant reduction
[11]
  reduction of S. epidermidis in plasma: failed to cause a significant reduction
[12]
  reduction of B. cereus in platelets: No significant reduction
[13]; EC5 12.5 μg/ml
  reduction of E. coli in platelets: 4.5 log10 CFU/ml
[13]; EC5 50 and 25 μg/ml
  E. coli colonies in platelets: no detectable E. coli colonies; also recorded: complete inhibition
[14]; EC5 12.5 μg/ml
  reduction of K pneumoniae in platelets: 1 log10CFU/m
[14]; EC5 25 μg/ml
  reduction of K pneumoniae in platelets: 1.5 log10CFU/m
[14]; EC5 50 μg/ml
  reduction of K pneumoniae in platelets: 2.5 log10CFU/m
[15]
  reduction of P. aeruginosa in platelets: 4 log10 CFU/ml
[16]
  reduction of S. aureus in platelets: No significant reduction
[17]
  reduction of S. epidermidis in platelets: No significant reduction
[18]; at similar concentrations
  increase in NPN fluorescence compared with polymyxin B: higher than for polymyxin B
[18]; [20]
  NPN fluorescence (outer membrane permeabilization): dose-dependent increase in fluorescence
[19]; at similar concentrations
  increase in NPN fluorescence compared with polymyxin B: higher than for polymyxin B
[19]; [20]
  NPN fluorescence (outer membrane permeabilization): dose-dependent increase in fluorescence
